Values of other authors, collected in patent publication US8759404B2, “Intravenous propofol emulsion compositions having preservative efficacy” (Bharat Serums & Vaccines Ltd., priority 2005, dated 2014).

Compound | Oral LD50 in rats (rats; oral) | LD50 (rats; administered orally) | solubility in aqueous media (aqueous media) | solubility in fat solvents (chloroform, benzene, ethanol, or acetone)
CCCCCCCCCC(=O)O [Capric acid, Decanoic acid] | more than 10,000 mg/kg | – | – | –
CCCCCCCCCCCC(=O)OCC(O)CO (stereo not shown) [Monolaurin, monoglyceryl ester of lauric acid] | – | about 53,000 mg/kg body weight | insoluble | highly soluble
